Patent US20150045407A1, “MTK1-ACTIN INHIBITORS AND METHODS OF USE” (THE ARIZONA BOARD OF REGENTS ON BEHALF OF THE UNIVERSITY OF …, priority 2013, published 2015)
Entries after “also recorded” stand apart in the source; their conditions may differ.

Assays:
PI3K = conditions: Smirnova et al., 2012; cited from earlier work
HER3 = HER3 phosphorylation in HRG-stimulated MCF-7 cell lysates (immunoblot); conditions: for Effect on phosphorylation (activation) of HER3: MCF-7 cell lysates, 1 μg/ml cytochalasin D 30 minutes, then 10 nM HRG 12 minutes
Protocol: (§3) MCF-7 cells were maintained in the same media as T-47D cells and supplemented additionally with 10 μg/ml insulin. Prior to experimental procedures, cells were cultured in DMEM supplemented only with 1% penicillin-streptomycin for 16 hrs. […] Cells were treated with 1 μg/ml Cytochalasin D for 30 minutes prior to addition of HRG.
(§4) Images were obtained using ChemiDoc™ XRS+ (BIO-RAD) and quantification was performed with Image Lab Software. […] All commercial antibodies were used according to manufacturer recommendations.

MTK1/HER3 association = assay: HRG-induced MTK1/HER3 association, MTK1 immunoprecipitation and immunoblot in MCF-7 cells; conditions: then 10 nM HRG 12 minutes; for Effect on HRG-induced MTK1/HER3 association: MCF-7 cells pre-treated with 0, 50, 100 or 200 nM lapatinib for 1 hour, pTyr immunoblot of MTK1 IP
Protocol: as §3, §4
The cells were then washed twice with ice-cold 1× phosphate buffered saline pH 7.4. […] Immune complexes recovered using protein A-Sepharose beads (Sigma Cat# P3391) were washed twice with ice-cold lysis buffer and denatured with Laemmli sample buffer.

MCF-7 cells [1] = assay: HRG-induced extracellular acidification, media pH measurement; type: cell-based, human
Protocol: (§1) MCF-7 and T-47D cells were seeded in complete growth media at a density of 0.4×10^6 cells per well in 12-well plates (VWR #62406-165) for proliferation assays and 0.7×10^6 cells per well for pH measurements. Cells were allowed to adhere for 16 hours, followed by 4 hour serum starvation in DMEM, 1% penicillin-streptomycin without fetal bovine serum. […] Each condition was performed in triplicate and repeated a minimum of 3 times. After 24 hours, the cells were counted using a TC-10 Bio-Rad automated cell counter and the media pH was recorded using a pH meter probe. Data shown for each condition represents n=3. A two sided student t-test with standard deviation were used to perform statistical analyses on proliferation rates and media pH measurements. Statistical significance was determined by a p-value ≦0.05.
(§2) MCF-7 cells were seeded (onto 10 cm cell culture plates, VWR #353003) at a density of 5.0×10^6 cells and allowed to adhere for 16 hours. […] The cells were counted and seeded onto 12 well plates (VWR #62406-165) at a density of 0.7×10^6 cells per well for pH measurements and scratch assays or at density of 0.4×10^6 cells per well for proliferation assays. MTK1 knockdown efficiency was determined by immunoblot analysis using 150 μg whole cell lysate at 120 hours post-secondary transfection. […]

MCF-7 cells [2] = assay: Scratch assay, HRG-induced cell migration; type: cell-based, human; conditions: 250 nM lapatinib pre-treatment, 10 nM HRG
Protocol: MCF-7 cells were seeded (onto 10 cm cell culture plates, VWR #353003) at a density of 5.0×10^6 cells and allowed to adhere for 16 hours. The cells were then transfected with 434 pmol of siRNA specific for MTK1 (Thermo Scientific ON-TARGETplus SMARTpool, Human MAP3K4 (4216) Cat #L-003789-00-0005) or non-targeting (NS) (ON-TARGETplus Non-targeting Pool Cat #D-001810-10-05) as control using lipofectamine 2000 according to manufacture recommendations. The cells were transfected with siRNA a second time 24 hours later using lipofectamine 2000 to enhance knockdown efficiency. Twenty-four hours after the second transfection the cells were detached using 0.25% trypsin (Invitrogen #15050-065). The cells were counted and seeded onto 12 well plates (VWR #62406-165) at a density of 0.7×10^6 cells per well for pH measurements and scratch assays or at density of 0.4×10^6 cells per well for proliferation assays. MTK1 knockdown efficiency was determined by immunoblot analysis using 150 μg whole cell lysate at 120 hours post-secondary transfection. Each condition was performed in triplicate and repeated a minimum of 3 times. Data shown for each condition represents n=3. Statistical analysis was performed as described above.
Scratch assays were performed in 12-well plates using MCF-7 cells at a density of 0.7×10^6 cells per well. […]

MCF-7 cells [3] = assay: Cell proliferation and viability (automated cell count, trypan blue); type: cell-based, human; conditions: 10 nM HRG or 3.3 nM EGF, 24 hours
Protocol: as §1, §2

Cc1ccc([N+](=O)[O-])cc1S(=O)(=O)N(C)/N=C/c1cnc2ccc(Br)cn12 [PIK-75]
Effect on cell motility and invasion (PI3K): inhibits cell motility and invasion

C=C1[C@@H](C)[C@H]2[C@H](Cc3ccccc3)NC(=O)[C@]23[C@H](OC(C)=O)/C=C/[C@@](C)(O)C(=O)[C@@H](C)C/C=C/[C@H]3[C@@H]1O [cytochalasin D]
Effect on phosphorylation (activation) of HER3 (HER3): not affected; also recorded: remained the same | Effect on phosphorylation (activation) of HER3 (HER3; listed as Cytochalasin D): no effect | Effect on HRG-induced MTK1/HER3 association (in words) (MTK1/HER3 association; MCF-7 cells, 1 μg/ml cytochalasin D 30 minutes): disrupted the communication or signaling between HER3/ErbB3 and MTK1; also recorded: inhibited HRG induced MTK1/HER3 association; also recorded: inhibited MTK1 and HER3 association | Effect on HRG-induced MTK1/HER3 association (in words) (MTK1/HER3 association; MCF-7 cells, 1 μg/ml cytochalasin D 30 minutes, listed as Cytochalasin D): diminished interaction between MTK1 and HER3 | Decrease of interaction between HER3 and MTK1 (MTK1/HER3 association; MCF-7 cells, 1 μg/ml cytochalasin D 30 minutes, pY1289 HER3 immunoblot of MTK1 IP): ~60%

CS(=O)(=O)CCNCc1ccc(-c2ccc3ncnc(Nc4ccc(OCc5cccc(F)c5)c(Cl)c4)c3c2)o1 [lapatinib]
Effect on HRG-induced extracellular acidification (MCF-7 cells [1]; 250 nM lapatinib pre-treatment, 10 nM HRG 24 hours, media pH): significantly decreased; also recorded: inhibition of HRG-induced extracellular acidification | Effect of lapatinib on HRG-induced cell migration (MCF-7 cells [2]): significantly decreased cell migration | Effect on tyrosine phosphorylation of HER3 in lysates (HER3; MCF-7 cells, lapatinib 50-200 nM pre-treatment 1 hour, 10 nM HRG 12 minutes): effectively inhibited; also recorded: decreased | Effect on HRG-induced MTK1/HER3 association (MTK1/HER3 association): effectively inhibited; also recorded: attenuates MTK1/HER3 association; also recorded: inhibited association of MTK1 and HER3 | Effect on HRG-induced MTK1/HER3 association (MTK1/HER3 association; listed as Lapatinib): decreased the interaction between HER3 and MTK1 in a dose dependent manner

EGF: growth factor used to stimulate cells at 3.3 nM; activates EGFR and HER2 (NSDSECPLSHDGYCLHDGVCMYIEALDKYACNCVVGYIGERCQYRDLKWWELR; Epidermal growth factor; UniProt P01133 971-1023, looked up)
Extracellular acidification of cell culture media by stimulation (MCF-7 cells [1]; 10 nM HRG or 3.3 nM EGF, 24 hours, compared to vehicle): no effect; also recorded: did not induce extracellular acidification | Cell proliferation on stimulation (MCF-7 cells [3]): proliferative response was detected; also recorded: induced cell proliferation
